The text below walks through data of patent publication US6355658B1, “Coumarin derivatives, methods of preparation and application as medicines” (Centre National de la Recherche Scientifique, priority 1997, dated 2002).

One data set has as its target T1, human thrombin (Homo sapiens, UniProt P00734).
T1 construct: human thrombin
Put plainly: Inactivation kinetics of human thrombin (chromogenic substrate H-D-Phe-Pip-Arg-pNA). The settings on record: TABLE 5, phenyl esters; 25° C., pH 7.5; inactivation phase; N.I. = non-inactivator. It is filed as biochemical. As to the method: (§1) The inactivating or inhibitory properties of the coumarin derivatives were tested with respect to a certain number of enzymes: human leukocyte elastase, bovine α-chymotrypsin, human thrombin and bovine trypsin. The kinetic measurements were taken at 25° C. in the following buffers: 0.1 M Hepes, 0.5 M NaCl, 0.01% Tween 80, pH 8.0 (human leukocyte elastase); 0.025 M NaH2PO4, 0.05 M KCl, pH 7.5 (α-chymotrypsin); 0.01 M Tris, 0.01 M Hepes, 0.1 M NaCl, 0.1% PEG-6000, pH 7.5 (human thrombin); 0.1 M Tris, 0.01 M CaCl2, pH 7.5 (bovine trypsin). The chromogenic substrates used to determine the activity of the enzymes are: MeOSuc-Ala2-Pro-Val-pNA (human leukocyte elastase); Suc-Ala2-Pro-Phe-pNA (α-chymotrypsin); H-D-Phe-Pip-Arg-pNA (human thrombin); N-benzoyl-Arg-pNA (bovine trypsin) (pNA: para-nitroaniline).
(§2) The interaction of a suicide substrate with a serine protease corresponds to the minimum reaction scheme described in equation 1 in which E represents the enzyme, I represents the inhibitor, E-I represents the acyl-enzyme and E-I′ represents the inactivated enzyme [Silverman R. B., 1988, “Mechanism-based enzyme inactivation: chemistry and enzymology”, volume 1 CRC Press, Boca Raton, Fla.]: [drawing 76]
(§3) When k4 is small compared to k3, equation 1 can be simplified (equation 2, [Daniels et al., 1983, J. Biol. Chem., 258: 15046-15053]): [drawing 77]
(§4) Considering the first instants of the reaction, the system reduces to a simplified equation of the form of equation 2.
(§5) The kinetic constants characterizing the inactivation of the enzymes with the coumarin derivatives were determined using either the conventional sampling method (or batchwise method) or a method placing the inhibitor and the substrate in competition (or continuous method); these methods are described by Pochet et al. [Pochet et al., 1996, J. Med. Chem., 39: 2579-2585].
(§6) The inactivation of serine proteaaes with the coumarin derivatives is thus characterized by the following constants (see Eq. 2):
(§7) KI: apparent dissociation constant of an enzyme-inhibitor complex located upstream of ki
(§8) ki: first-order rate constant for inactivation at infinite inhibitor concentration
(§9) ki/KI: index of the overall inactivating efficacy of the inhibitor.

The target of a further data set is T2, human leukocyte elastase (Homo sapiens, UniProt P08246).
T2 sequence (P08246 30-247 limits assumed): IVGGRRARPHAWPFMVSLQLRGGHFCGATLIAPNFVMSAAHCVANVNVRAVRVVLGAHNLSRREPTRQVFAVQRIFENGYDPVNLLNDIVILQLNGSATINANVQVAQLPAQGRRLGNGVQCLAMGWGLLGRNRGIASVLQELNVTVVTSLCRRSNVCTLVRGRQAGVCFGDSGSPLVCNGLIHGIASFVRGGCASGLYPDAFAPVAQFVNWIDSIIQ
Put plainly: Inactivation kinetics of human leukocyte elastase (chromogenic substrate MeOSuc-Ala2-Pro-Val-pNA). It is filed as biochemical. The settings on record: TABLE 5, phenyl esters; 25° C., pH 8.0; inactivation phase; N.I. = non-inactivator; read-out: Ki/KI or kobs/[I], HLE. As to the method: as §1, §2, §3, §4, §5, §6, §7, §8, §9

In general, melting point refers to the temperature of the solid-liquid transition. `CC(=O)OCc1ccc2oc(=O)c(C(=O)Oc3cc([N+](=O)[O-])ccc3[N+](=O)[O-])cc2c1` returned a melting point of 162 to 164 °C.
The same measure, in the same setting: as for `O=C(Oc1cc(F)ccc1Br)c1cc2ccccc2oc1=O` [Ia6, 2-bromo-5-fluorophenyl 2-oxo-2H-1-benzopyran-3-carboxylate], the figure is 173 to 175 °C.
Compound `O=C(Oc1cc(F)ccc1F)c1cc2ccccc2oc1=O` [Ia5, 2,5-difluorophenyl 2-oxo-2H-1-benzopyran-3-carboxylate] yielded a melting point of 134 to 137 °C. The “Ki/KI or kobs/[I], Thrombin” value on human thrombin was “N.I”.
On to `COc1ccc(NC(=O)c2cc3cc(CCl)ccc3oc2=O)cn1` [II3, N-(6-methoxy-3-pyridyl)-6-chloromethyl-2-oxo-2H-1-benzopyran-3-carboxamide], for which the melting point is 225 °C (dec.).
On the same count and under the same terms, as for `O=C(Oc1cc([N+](=O)[O-])ccc1[N+](=O)[O-])c1cc2cc(CCl)ccc2oc1=O`, the figure is 153 to 157 °C.
As to `O=C(Nc1cccnc1)c1cc2cc(CCl)ccc2oc1=O` [II1, N-(3-pyridyl)-6-chloromethyl-2-oxo-2H-1-benzopyran-3-carboxamide], the melting point is 270 °C (dec.).
`O=C(Oc1cccc2cccnc12)c1cc2cc(CCl)ccc2oc1=O` [Ic″″1, 8-quinolyl 6-chloromethyl-2-oxo-2H-1-benzopyran-3-carboxylate]: the melting point was 127 °C (dec.).
The same measure, in the same setting: as for `O=C(Nc1cccnc1Cl)c1cc2cc(CCl)ccc2oc1=O` [II2, N-(2-chloro-3-pyridyl)-6-chloromethyl-2-oxo-2H-1-benzopyran-3-carboxamide], the figure is 211 °C (dec.); as for `O=C(NSc1ncccc1[N+](=O)[O-])c1cc2cc(CCl)ccc2oc1=O` [IV1, N-[(3-nitro-2-pyridyl)sulfanyl]-6-chloromethyl-2-oxo-2H-1-benzopyran-3-carboxamide], 252 to 254 °C; as for `O=C(Oc1cccnc1Br)c1cc2cc(CCl)ccc2oc1=O` [Ic′″6, 2-bromo-3-pyridyl 6-chloromethyl-2-oxo-2H-1-benzopyran-3-carboxylate], 197 to 199 °C.
Still for that read-out and setting: as for `Cc1ccc2oc(=O)c(C(=O)Oc3cc(F)ccc3F)cc2c1` [Ib4, 2,5-difluorophenyl 6-methyl-2-oxo-2H-1-benzopyran-3-carboxylate], the figure is 155 to 159 °C; as for `O=C(Oc1cc(F)ccc1[N+](=O)[O-])c1cc2ccccc2oc1=O` [Ia7, 5-fluoro-2-nitrophenyl 2-oxo-2H-1-benzopyran-3-carboxylate], 219 to 223 °C.
Still for that read-out and setting: as for `O=C(Oc1cc(F)ccc1Br)c1cc2cc(CCl)ccc2oc1=O` [Ic″9, 2-bromo-5-fluorophenyl 6-chloromethyl-2-oxo-2H-1-benzopyran-3-carboxylate], the figure is 203 to 205 °C; as for `Cc1ccc2oc(=O)c(C(=O)Oc3cc(F)ccc3[N+](=O)[O-])cc2c1` [Ib6, 5-fluoro-2-nitrophenyl 6-methyl-2-oxo-2H-1-benzopyran-3-carboxylate], 224 to 226 °C.
`Cc1ccc2oc(=O)c(C(=O)Oc3cccc4cnccc34)cc2c1` [Ib8, 5-isoquinolyl 6-methyl-2-oxo-2H-1-benzopyran-3-carboxylate] gave a melting point of 188 to 190 °C.
`O=C(Oc1cc([N+](=O)[O-])ccc1[N+](=O)[O-])c1cc2ccccc2oc1=O` registered a melting point of 223 to 225 °C.
In the case of `O=C(OC1CCCCC1)c1cc2cc(CCl)ccc2oc1=O` [Ic′1, cyclohexyl 6-chloromethyl-2-oxo-2H-1-benzopyran-3-carboxylate], the melting point was in the range of 185 to 186 °C.
For the compound `O=C(OC1CCCCCCCCCCC1)c1cc2cc(CCl)ccc2oc1=O` [Ic′4, cyclododecyl 6-chloromethyl-2-oxo-2H-1-benzopyran-3-carboxylate], the melting point is 164 to 167 °C.
Same read-out and setting: as for `Cc1ccc2oc(=O)c(C(=O)Oc3cc(F)ccc3Br)cc2c1` [Ib5, 2-bromo-5-fluorophenyl 6-methyl-2-oxo-2H-1-benzopyran-3-carboxylate], the figure is 187 to 190 °C; as for `CC(=O)OCc1ccc2oc(=O)c(C(=O)Oc3cc(Cl)cc(Cl)c3)cc2c1` [Id13, 3,5-dichlorophenyl 6-acetoxymethyl-2-oxo-2H-1-benzopyran-3-carboxylate], 146 to 150 °C; as for `O=C(OC1CCCCCC1)c1cc2cc(CCl)ccc2oc1=O` [Ic′2, cycloheptyl 6-chloromethyl-2-oxo-2H-1-benzopyran-3-carboxylate], 171 to 174 °C.
Same read-out and setting: as for `O=C(Oc1cccc2cnccc12)c1cc2ccccc2oc1=O` [Ia9, 5-isoquinolyl 2-oxo-2H-1-benzopyran-3-carboxylate], the figure is 190 to 193 °C.
The same measure, in the same setting: as for `O=C(Oc1cc2ccccc2cn1)c1cc2ccccc2oc1=O` [Ia10, 3-isoquinolyl 2-oxo-2H-1-benzopyran-3-carboxylate], the figure is 160 to 163 °C.
Turning to `CC(=O)OCc1ccc2oc(=O)c(C(=O)Oc3cc(F)ccc3[N+](=O)[O-])cc2c1` [Id15, 5-fluoro-2-nitrophenyl 6-acetoxymethyl-2-oxo-2H-1-benzopyran-3-carboxylate], the melting point fell in the range of 157 to 161 °C.
For the compound `Cc1ccc2oc(=O)c(C(=O)Oc3cc(Cl)ccc3Cl)cc2c1` [Ib3, 2,5-dichlorophenyl 6-methyl-2-oxo-2H-1-benzopyran-3-carboxylate], the melting point fell in the range of 175 to 179 °C. Further, the kinact/KI at human leukocyte elastase was determined as 3000 M⁻¹ s⁻¹.
For `Cc1cncc(OC(=O)c2cc3cc(CCl)ccc3oc2=O)c1` [Ic′″2, 5-methyl-3-pyridyl 6-chloromethyl-2-oxo-2H-1-benzopyran-3-carboxylate], the melting point is 211 °C (dec.).
As to `CCC(=O)OCc1ccc2oc(=O)c(C(=O)Oc3ccccc3)cc2c1` [Id5, phenyl 6-propionyloxymethyl-2-oxo-2H-1-benzopyran-3-carboxylate], the melting point lay within 186 to 187 °C.
Same read-out and setting: as for `Cc1ccc(OC(=O)c2cc3cc(CCl)ccc3oc2=O)c([N+](=O)[O-])n1` [Ic′″8, 6-methyl-2-nitro-3-pyridyl 6-chloromethyl-2-oxo-2H-1-benzopyran-3-carboxylate], the figure is 203 to 208 °C.
In turn, `O=C(Oc1cc(F)ccc1[N+](=O)[O-])c1cc2cc(CCl)ccc2oc1=O` [Ic″10, 5-fluoro-2-nitrophenyl 6-chloromethyl-2-oxo-2H-1-benzopyran-3-carboxylate] registered a melting point of 205 to 208 °C.
The same measure, in the same setting: as for `CC(=O)OCc1ccc2oc(=O)c(C(=O)Oc3cc(F)ccc3Br)cc2c1` [Id14, 2-bromo-5-fluorophenyl 6-acetoxymethyl-2-oxo-2H-1-benzopyran-3-carboxylate], the figure is 148 to 150 °C; as for `O=C(Oc1ccc2ncccc2c1)c1cc2cc(CCl)ccc2oc1=O` [Ic″″2, 6-quinolyl 6-chloromethyl-2-oxo-2H-1-benzopyran-3-carboxylate], 205 to 208 °C.
Still for that read-out and setting: as for `Cc1ccc(OC(=O)c2cc3cc(CCl)ccc3oc2=O)cn1` [Ic′″3, 6-methyl-3-pyridyl 6-chloromethyl-2-oxo-2H-1-benzopyran-3-carboxylate], the figure is 205 to 208 °C; as for `O=C(Oc1cccnc1[N+](=O)[O-])c1cc2cc(CCl)ccc2oc1=O` [Ic′″7, 2-nitro-3-pyridyl 6-chloromethyl-2-oxo-2H-1-benzopyran-3-carboxylate], 190 to 193 °C; as for `Cc1ccc2oc(=O)c(C(=O)Oc3cc([N+](=O)[O-])ccc3[N+](=O)[O-])cc2c1`, 225 to 229 °C.
In turn, `O=C(Oc1cccnc1Cl)c1cc2cc(CCl)ccc2oc1=O` [Ic′″4, 2-chloro-3-pyridyl 6-chloromethyl-2-oxo-2H-1-benzopyran-3-carboxylate] showed a melting point of 198 to 200 °C.
The compound `O=C(OC1CCCCCCC1)c1cc2cc(CCl)ccc2oc1=O` [Ic′3, cyclooctyl 6-chloromethyl-2-oxo-2H-1-benzopyran-3-carboxylate] registered a melting point of 169 to 170 °C.
